Laboratory results from ChEMBL document CHEMBL1201862, “PubChem BioAssay data set” (2004).
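Step 1: Grow cells in 96-well plates. Step 2: Expose to compound for 48 hours at 5 concentrations. Step 3: Interpolate endpoints linearly; if unreached, use highest concentration. Abbreviation: GI50, concentration required for 50% inhibition of growth.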 Activity calls are given as the source filed them. Cut-off read from the data, not from the text of the source: active = GI50 up to about 1.1 µM and inactive = higher.

Tests used:
Assay in all cases: growth of human tumour cells (NCI), 48 h
HCT-15 = test system: HCT-15
SK-MEL-2 = test system: SK-MEL-2
SNB-78 = test system: SNB-78
OVCAR-5 = test system: OVCAR-5
XF498 = test system: XF498
HCC 2998 = test system: HCC 2998
NCI-H522 = test system: NCI-H522
DLD-1 = test system: DLD-1
HOP-92 = test system: HOP-92
MDA-MB-435 = test system: MDA-MB-435
SF-539 = test system: SF-539
KM-20L2 = test system: KM-20L2
Hs-578T = test system: Hs-578T
SNB-75 = test system: SNB-75
DU-145 = test system: DU-145
HOP-18 = test system: HOP-18
T47D = test system: T47D
A549 = test system: A549
NCI-H226 = test system: NCI-H226
DMS-273 = test system: DMS-273
LXFL 529 = test system: LXFL 529
NCI-H460 = test system: NCI-H460
CCRF-CEM = test system: CCRF-CEM
HT-29 = test system: HT-29
RXF 393 = test system: RXF 393
HOP-62 = test system: HOP-62
ACHN = test system: ACHN
OVCAR-8 = test system: OVCAR-8
OVCAR-3 = test system: OVCAR-3
NCI-H23 = test system: NCI-H23
M14 = test system: M14
UACC-62 = test system: UACC-62
SW-620 = test system: SW-620
UACC-257 = test system: UACC-257
DMS-114 = test system: DMS-114
TK-10 = test system: TK-10
786-0 = test system: 786-0
SN12C = test system: SN12C
IGROV-1 = test system: IGROV-1
SK-MEL-28 = test system: SK-MEL-28
SF-295 = test system: SF-295
M19-MEL = test system: M19-MEL
U-251 = test system: U-251
KM12 = test system: KM12
EKVX = test system: EKVX
HCT-116 = test system: HCT-116
MOLT-4 = test system: MOLT-4
COLO 205 = test system: COLO 205
SK-MEL-5 = test system: SK-MEL-5
Malme-3M = test system: Malme-3M
UO-31 = test system: UO-31
RPMI-8226 = test system: RPMI-8226
LOX IMVI = test system: LOX IMVI
SNB-19 = test system: SNB-19
HL-60 = test system: HL-60
SK-OV-3 = test system: SK-OV-3
K562 = test system: K562
SR = test system: SR
SF-268 = test system: SF-268
A498 = test system: A498
OVCAR-4 = test system: OVCAR-4
CAKI-1 = test system: CAKI-1

O=C1C(Cl)=C(N2CCN(CCOCCO)CC2)C(=O)c2c(O)ccc(O)c21
GI50 (HCT-15): 0.292 µM | GI50 (SK-MEL-2): 0.404 µM (active) | GI50 (SNB-78): 0.363 µM (active) | GI50 (OVCAR-5): 1.79 µM (inactive) | GI50 (XF498): 0.557 µM (active) | GI50 (HCC 2998): 1.93 µM (inactive) | GI50 (NCI-H522): 0.174 µM (active) | GI50 (DLD-1): 0.195 µM (active) | GI50 (HOP-92): 0.231 µM (active) | GI50 (MDA-MB-435): 0.295 µM (active) | GI50 (SF-539): 1.3 µM (inactive) | GI50 (KM-20L2): 0.716 µM (active) | GI50 (Hs-578T): 2.64 µM (inactive) | GI50 (SNB-75): 1.41 µM (inactive) | GI50 (DU-145): 1.85 µM (inactive) | GI50 (HOP-18): 1.38 µM (inactive) | GI50 (T47D): 0.438 µM (active) | GI50 (A549): 2.71 µM (inactive) | GI50 (NCI-H226): 1.99 µM (inactive) | GI50 (DMS-273): 1.05 µM (active) | GI50 (LXFL 529): 0.224 µM (active) | GI50 (NCI-H460): 3.1 µM (inactive)

C/C(=N\NC(=O)CC(=O)Nc1ccc(Cl)cc1)c1cc2ccccc2oc1=O
GI50 (CCRF-CEM): > 100 µM (inactive) | GI50 (HT-29): > 100 µM (inactive) | GI50 (RXF 393): > 100 µM (inactive) | GI50 (HOP-62): > 100 µM (inactive) | GI50 (ACHN): > 100 µM (inactive) | GI50 (HCT-15): > 100 µM | GI50 (OVCAR-8): > 100 µM (inactive) | GI50 (OVCAR-3): > 100 µM (inactive) | GI50 (NCI-H23): > 100 µM (inactive) | GI50 (M14): > 100 µM (inactive) | GI50 (UACC-62): > 100 µM (inactive) | GI50 (XF498): > 100 µM (inactive) | GI50 (SW-620): > 100 µM (inactive) | GI50 (NCI-H522): > 100 µM (inactive) | GI50 (UACC-257): > 100 µM (inactive) | GI50 (DMS-114): > 100 µM (inactive) | GI50 (TK-10): > 100 µM (inactive) | GI50 (786-0): > 100 µM (inactive) | GI50 (DLD-1): > 100 µM (inactive) | GI50 (SN12C): > 100 µM (inactive) | GI50 (SF-539): > 100 µM (inactive) | GI50 (IGROV-1): > 100 µM (inactive) | GI50 (SK-MEL-28): > 100 µM (inactive) | GI50 (KM-20L2): > 100 µM (inactive) | GI50 (SF-295): > 100 µM (inactive) | GI50 (M19-MEL): > 100 µM (inactive) | GI50 (U-251): > 100 µM (inactive) | GI50 (KM12): > 100 µM (inactive) | GI50 (EKVX): > 100 µM (inactive) | GI50 (SNB-75): 66.1 µM (inactive) | GI50 (HOP-18): > 100 µM (inactive) | GI50 (HCT-116): > 100 µM (inactive) | GI50 (MOLT-4): > 100 µM (inactive) | GI50 (COLO 205): > 100 µM (inactive) | GI50 (A549): > 100 µM (inactive) | GI50 (NCI-H226): > 100 µM (inactive) | GI50 (DMS-273): > 100 µM (inactive) | GI50 (SK-MEL-5): > 100 µM (inactive) | GI50 (Malme-3M): > 100 µM (inactive) | GI50 (UO-31): > 100 µM (inactive) | GI50 (RPMI-8226): > 100 µM (inactive) | GI50 (LOX IMVI): > 100 µM (inactive) | GI50 (SNB-19): > 100 µM (inactive) | GI50 (HL-60): > 100 µM (inactive) | GI50 (SK-OV-3): > 100 µM (inactive) | GI50 (NCI-H460): > 100 µM (inactive) | GI50 (K562): > 100 µM (inactive)

CC1=C(C(=O)NCc2ccccc2)C(c2ccco2)C(C(=O)NCc2ccccc2)=C(C)N1
GI50 (CCRF-CEM): 45.8 µM (inactive) | GI50 (HT-29): 53.8 µM (inactive) | GI50 (RXF 393): 66.8 µM (inactive) | GI50 (HOP-62): 65.3 µM (inactive) | GI50 (SR): > 100 µM (inactive) | GI50 (ACHN): 31.5 µM (inactive) | GI50 (HCT-15): 52.8 µM | GI50 (OVCAR-8): 78.5 µM (inactive) | GI50 (SK-MEL-2): 27.6 µM (inactive) | GI50 (OVCAR-3): > 100 µM (inactive) | GI50 (NCI-H23): > 100 µM (inactive) | GI50 (SNB-78): > 100 µM (inactive) | GI50 (M14): 57 µM (inactive) | GI50 (UACC-62): 17.3 µM (inactive) | GI50 (OVCAR-5): > 100 µM (inactive) | GI50 (XF498): > 100 µM (inactive) | GI50 (SW-620): 50.9 µM (inactive) | GI50 (HCC 2998): 47 µM (inactive) | GI50 (NCI-H522): 85.1 µM (inactive) | GI50 (UACC-257): > 100 µM (inactive) | GI50 (DMS-114): 48.5 µM (inactive) | GI50 (TK-10): 57.4 µM (inactive) | GI50 (SF-268): 80.4 µM (inactive) | GI50 (DLD-1): > 100 µM (inactive) | GI50 (SN12C): 91.6 µM (inactive) | GI50 (HOP-92): 92.9 µM (inactive) | GI50 (SF-539): > 100 µM (inactive) | GI50 (IGROV-1): > 100 µM (inactive) | GI50 (SK-MEL-28): > 100 µM (inactive) | GI50 (KM-20L2): 32.5 µM (inactive) | GI50 (A498): > 100 µM (inactive) | GI50 (SF-295): 56.9 µM (inactive) | GI50 (U-251): > 100 µM (inactive) | GI50 (KM12): 33.8 µM (inactive) | GI50 (EKVX): > 100 µM (inactive) | GI50 (SNB-75): > 100 µM (inactive) | GI50 (OVCAR-4): 55.7 µM (inactive) | GI50 (CAKI-1): 57.5 µM (inactive) | GI50 (HOP-18): > 100 µM (inactive) | GI50 (HCT-116): 71.4 µM (inactive) | GI50 (MOLT-4): 23 µM (inactive) | GI50 (COLO 205): > 100 µM (inactive) | GI50 (A549): > 100 µM (inactive) | GI50 (NCI-H226): > 100 µM (inactive) | GI50 (DMS-273): 66.8 µM (inactive) | GI50 (SK-MEL-5): > 100 µM (inactive) | GI50 (Malme-3M): > 100 µM (inactive) | GI50 (UO-31): > 100 µM (inactive) | GI50 (RPMI-8226): > 100 µM (inactive) | GI50 (LOX IMVI): 77.3 µM (inactive) | GI50 (LXFL 529): 42.6 µM (inactive) | GI50 (SNB-19): > 100 µM (inactive) | GI50 (HL-60): 17.8 µM (inactive) | GI50 (SK-OV-3): > 100 µM (inactive) | GI50 (NCI-H460): > 100 µM (inactive) | GI50 (K562): 30.3 µM (inactive)
